Reference: patent publication US12297179B2, “Crystalline and salt forms of an organic compound and pharmaceutical compositions thereof” (Servier Pharmaceuticals LLC, priority 2018, dated 2025)

Assay: Thermodynamic stability study: slurry competition among free acid Form A/B/C/D
Assay type: physicochemical
Details: 50° C. and 70° C.
Experimental: To investigate and compare the thermodynamic stability among the identified four crystalline forms of Compound 1 (free acid Form A/B/C/D), two stages of slurry competition experiments were conducted, of which the first one was to study the anhydrous solvent systems and the second stage was solvent systems with different water activities (aw).
In the first stage, ˜2 mg of each solid form (free acid Form A/B/C/D) was physically mixed first, followed by addition of 0.5 mL solvent to form suspension. At various slurrying conditions, a small amount of solid was isolated after ˜7 days for XRPD test.
To further explore any impact of water content on the conversion relationship, six conditions with different water activities and temperatures were applied. Approximately 2 mg of each solid form (free acid Form A/B/C/D) was mixed and suspended in 1.0 mL corresponding solvent systems. After slurry for ˜1 month, the solids were isolated for XRPD test.

[1] = anhydrous solvent systems, slurry at RT, ~7 days
[2] = solvent mixtures with different water activities (aw: 0~1), RT, ~1 month

SMILES | form after slurry competition (XRPD), thermodynamic stability [1] | form after slurry competition (XRPD), thermodynamic stability [2]
Cc1ccccc1-c1ccc(-c2cc(C(=O)O)c3c(c2)nnn3C)cc1 [free acid Form A] | converted to Form D | converted to Form D
Cc1ccccc1-c1ccc(-c2cc(C(=O)O)c3c(c2)nnn3C)cc1 [free acid Form C] | converted to Form D | converted to Form D
Cc1ccccc1-c1ccc(-c2cc(C(=O)O)c3c(c2)nnn3C)cc1 [free acid Form B] | converted to Form D | converted to Form D
